# According to patent US20060194874A1, “Use of propionyl l-carnitine for the preparation of a medicament for the treatment of glaucoma” (priority 2002, published 2006):
# Columns and labels:
# [1] = test system: 3T6 cells (murine fibroblast line); assay: Cell count with erythrosine staining, serum-deprived 3T6 cells (induced apoptosis); format: cell-based; conditions: 0.25 mM, 0.55 mM, 1.1 mM
# Experimental: In subsequent experiments, apoptosis was induced in 3T6 cells 24 hours after plating by means of serum deprivation, and simultaneously propionyl L-carnitine was added to the cells. Three different concentrations of the compound were used: 0.25 mM, 0.55 mM and 1.1 mM. 48 hours after plating (24 hours after administration of the substance) a cell count with erythrosine staining was performed. Cells grown in complete medium were taken as the negative control and serum-deprived cells as the positive control.
# BAX = assay: Cytoimmunological localisation of BAX (DAB staining, haematoxylin counterstain) in serum-deprived 3T6 cells; format: cell-based, murine
# Experimental: (§1) To assess the chromatin status (and thus the apoptosis) in serum-deprived 3T6 cells, and, in cells treated with propionyl L-carnitine, a TUNEL (terminal deoxynucleotidyl transferase-mediated dUTP-biotin end labelling) reaction was performed in vitro. TUNEL labelling is a technique that consists in the addition of nucleotides (conjugated with fluorescein) at the free 3′-OH extremities present in the fragmented DNA. This reaction is catalysed by the terminal enzyme transferase. The TUNEL technique was performed on untreated serum-deprived cells and on serum-deprived cells to which the three concentrations (0.25 mM, 0.55 mM, and 1.1 mM) of propionyl L-carnitine already used for the cell counts were administered. […] The binding of the primary antibody with its epitope to BAX was detected with a secondary antibody that exploits DAB ([…]) staining. The cells subjected to cytoimmunological localisation were deprived of serum 24 hours after plating and treated with propionyl L-carnitine at the above-mentioned concentrations. Cells grown in complete medium were used as the positive control, while the negative control was prepared with cells deprived of serum 24 hours after plating.
# Counterstaining with a nuclear dye such as haematoxylin was also performed in order to confirm the fact that the staining obtained with cytoimmunological localisation was effectively cytoplasmic. On the basis of the data reported in the literature, in fact, it is known that BAX is a cytoplasmically localised protein. […] On comparing the data obtained in the cell counts, with the TUNEL technique and with cytoimmunological localisation, an improvement can be found in cell survival after treatment with propionyl L-carnitine. This proves evident both in cells grown in complete medium and in cells grown in conditions in which apoptosis is induced as a result of serum deprivation.
# [2] = test system: 3T6 cells (murine fibroblast line); assay: Cell count with erythrosine stain, 3T6 cells grown in complete medium; format: cell-based; conditions: 3T6 cells in complete medium, count 24 hours after administration
# Experimental: 3T6 cells (murine fibroblast line) grown in complete medium (DMEM: 10% NBS, 2% PEST and 2% glutamine) were treated with propionyl L-carnitine 24 hours after plating the cells. 48 hours after plating (24 hours after administration of the substance), a cell count was performed on the cells thus treated with an erythrosine stain that detects cells that are no longer viable (diluted 1:5 with PBS A buffer) from which the cell survival data were obtained. As controls, we used cells cultivated in complete medium on which the cell count was performed, again 24 hours after plating.
# [3] = test system: 3T6 cells (murine fibroblast line); assay: TUNEL reaction in vitro (chromatin status) in serum-deprived 3T6 cells; format: cell-based
# Experimental: as §1
# [4] = test system: ganglionic cells of the retina and/or astrocytes of the optic nerve; assay: In-vivo rat model of methylcellulose (MTC)-induced intraocular hypertension (experimental glaucoma): histology and TUNEL
# Experimental: The effect of propionyl L-carnitine was evaluated in an in-vivo experimental rat model. This model of induction of programmed cell death (apoptosis) and/or necrosis of ganglionic cells of the retina and/or astrocytes of the optic nerve is described in the above-mentioned Acta Ophthalmologica Scandinavica, 1988, Supplement 27, 20-21 and Experimental Postgraduate Degree Thesis, Institute of Ophthalmology, “La Sapienza” University, Rome. Intraocular hypertension was induced by means of injecting methylcellulose (MTC) into the anterior chamber. The rats were divided into three groups: 1) untreated (blanks), 2) rats treated with 2% MTC (10 μL), and 3) rats treated with MTC and propionyl L-carnitine 0.15 mM final concentration injected into the anterior chamber. In semithin histological sections of untreated rat optic nerve (haematoxylin-eosin staining), normal longitudinal organisation of the astrocytes among the fibres was detected (FIG. 1A). In contrast, in rats treated with MTC, loss of cell organisation and the presence of necrotic astrocytes were detected (FIG. 1B).
# [5] = test system: patients suffering from glaucoma; assay: Clinical trial: ocular colour Doppler ultrasonography, visual field (Octopus) and intraocular pressure; format: in vivo, human
# Experimental: Ten patients suffering from glaucoma were treated with propionyl L-carnitine (DROMOS®) by mouth at a dose of 2 g/day for periods ranging from 15 to 50 days. Ocular arterial flow was studied by means of ocular colour Doppler ultrasonography. The posterior (nasal) ciliary artery, the posterior (temporal) ciliary artery, the central retinal and ophthalmic arteries were examined. Systolic and diastolic flow rates were expressed in cm/sec; the ratio (systolic—diastolic flow)/systolic flow expresses the peripheral resistance index. Visual fields before and after treatment with DROMOS® were compared.
# [6] = ten glaucoma patients, 2 g/day by mouth, 15 to 50 days
structure (smiles),measurement,setting,value
CCC(=O)O[C@H](CC(=O)[O-])C[N+](C)(C)C [propionyl L-carnitine],cell viability compared to negative control (complete medium),[1],still less than that obtained in the negative control
same,cell mortality compared to serum-deprived cells (positive control),[1]; count 24 hours after administration,a reduction in cell mortality
same,alterations of chromatin condensation (haematoxylin counterstaining),BAX; serum-deprived 3T6 cells after treatment,tend to be reduced
same,"BAX expression, dependence on concentration","BAX; serum-deprived 3T6 cells, 0.25 mM, 0.55 mM, 1.1 mM",proportional to the different concentrations
same,expression of BAX compared to untreated serum-deprived cells,"BAX; serum-deprived 3T6 cells, FIG. 4B",a lower expression of BAX
same,cell growth (cell count) compared to untreated control cells,[2],an increase in cell growth
same,"cytoprotective effect, dependence on concentration","[3]; 0.25 mM, 0.55 mM, 1.1 mM",increased with the increase in concentration
same,chromatin fragmentation (TUNEL fluorescence intensity),"[3]; serum-deprived 3T6 cells vs untreated serum-deprived cells, FIG. 3B",a marked reduction in chromatin fragmentation
same,organisation of astrocytes in semithin histological sections of optic nerve,"[4]; rats treated with 2% MTC (10 μL) and propionyl L-carnitine 0.15 mM final concentration, injected into the anterior chamber, haematoxylin-eosin, FIG. 1C",longitudinal organisation among the fibres
same,necrotic cells (astrocytes) in optic nerve sections,"[4]; rats treated with 2% MTC and propionyl L-carnitine 0.15 mM, anterior chamber, FIG. 1C",no necrotic cells were detected
same,TUNEL fluorescence (apoptotic cells) in optic nerves,"[4]; rats treated with MTC and propionyl L-carnitine 0.15 mM, anterior chamber, fluorescence microscopy, FIG. 2B",the presence of TUNEL fluorescence was not observed
same,"Visual field (Octopus) after treatment, MD","[5]; Patient 1, OS, 30 days of treatment, before treatment 2",5.6
same,"Visual field (Octopus) after treatment, MS","[5]; Patient 1, OS, 30 days of treatment, before treatment 11.6",20.2
same,Posterior nasal ciliary artery resistance index (R.I.) after treatment,"[5]; Patient 1, SN, 30 days, before treatment 0.63",0.66
same,Posterior nasal ciliary artery diastolic flow after treatment,"[5]; Patient 1, SN, 30 days, before treatment 2.21",5.75 cm/sec
same,Posterior nasal ciliary artery systolic flow after treatment,"[5]; Patient 1, SN, 30 days, before treatment 5.96",16.7 cm/sec
same,Posterior temporal ciliary artery resistance index (R.I.) after treatment,"[5]; Patient 2, DX, 12 days, before treatment (SN) 0.67",0.55
same,Posterior temporal ciliary artery diastolic flow after treatment,"[5]; Patient 2, DX, 12 days, before treatment (SN) 1.92",3.86 cm/sec
same,Posterior temporal ciliary artery systolic flow after treatment,"[5]; Patient 2, DX, 12 days, before treatment (SN) 5.75",8.65 cm/sec
same,"Visual field (Octopus) after treatment, MD","[5]; Patient 2, OD, 12 days of treatment, before treatment 11.1",8.4
same,"Visual field (Octopus) after treatment, MS","[5]; Patient 2, OD, 12 days of treatment, before treatment 15.5",16.2
same,visual fields,"[5]; subjects with stable glaucoma, 2 g/day by mouth",improves visual fields
same,intraocular pressure (IOP),[5]; [6],no significant reduction in IOP
same,ocular arterial flows,[5]; [6],increases the flows
same,peripheral resistance index in the sectors affected,[5]; [6],reduces the resistance index
